# According to ChEMBL document CHEMBL1130864, “Potent and efficacious thienylamidine-incorporated thrombin inhibitors” (Bioorg Med Chem Lett, 1998):
# pKi: −log10 of the molar value.
# How the values were obtained:
# Serine protease 1 = target: T1, Serine protease 1 (Bos taurus, UniProt P00760); assay: Compound was evaluated for its inhibitory activity against bovine trypsin
# T1 sequence (P00760 whole entry): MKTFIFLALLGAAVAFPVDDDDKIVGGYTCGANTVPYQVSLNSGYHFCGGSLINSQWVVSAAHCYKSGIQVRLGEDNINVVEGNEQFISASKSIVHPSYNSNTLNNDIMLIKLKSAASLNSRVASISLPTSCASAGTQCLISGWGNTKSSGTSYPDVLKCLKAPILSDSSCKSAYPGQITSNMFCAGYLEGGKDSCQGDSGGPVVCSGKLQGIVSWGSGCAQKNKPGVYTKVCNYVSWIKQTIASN
# Prothrombin = Prothrombin (Homo sapiens, UniProt P00734); assay: Compound was evaluated for its inhibitory activity against human thrombin
pKi (Serine protease 1),pKi (Prothrombin),Structure (SMILES)
6.87,9.31,COc1ccc2cc(S(=O)(=O)N[C@@H](Cc3ccc(C(=N)N)s3)C(=O)N(C)C3CCCC3)ccc2c1
6.82,8.52,CN(C(=O)[C@H](Cc1ccc(C(=N)N)s1)NS(=O)(=O)c1ccc2ccccc2c1)C1CCCC1
5.61,9.08,CCCc1ccc(S(=O)(=O)N[C@@H](Cc2ccc(C(=N)N)cc2)C(=O)N(C)C2CCCC2)cc1
,7.04,CN(C(=O)[C@H](Cc1ccc(C(=N)NN)s1)NS(=O)(=O)c1ccc2ccccc2c1)C1CCCC1
6.82,9.22,CCCc1ccc(S(=O)(=O)N[C@@H](Cc2ccc(C(=N)N)s2)C(=O)N(C)C2CCCC2)cc1
4.79,8.17,CN(C(=O)[C@H](Cc1ccc(C(=N)N)cc1)NS(=O)(=O)c1ccc2ccccc2c1)C1CCCC1
